In the supplement of paper PMC11451515:

Test system: SEM cells
Assay: cell viability relative to DMSO control; higher = less cytotoxic
Conditions: 48 h
Method in brief: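 Cells were incubated for 48 h at 37°C before CellTiter-Glo One luminescence was read. The cells were NOMO1 or SEM (500 cells/well) or P12-Ichikawa (1000 cells/well) leukemia cells, adapted for at least four passages in each medium and seeded in 1536-well plates (5 μl). Dosing used library compounds in DMSO applied by pin over 11 threefold points, 47 μM to 0.79 nM. Viability is the per-plate percentage of DMSO wells, with cell-free wells as background.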

[1] = HPLM + 10% dialyzed FBS, 0.000781 µM
[2] = HPLM + 10% dialyzed FBS, 0.00234 µM
[3] = HPLM + 10% dialyzed FBS, 0.00702 µM
[4] = HPLM + 10% dialyzed FBS, 0.0211 µM
[5] = HPLM + 10% dialyzed FBS, 0.0632 µM
[6] = HPLM + 10% dialyzed FBS, 0.19 µM
[7] = HPLM + 10% dialyzed FBS, 0.569 µM
[8] = HPLM + 10% dialyzed FBS, 1.71 µM
[9] = HPLM + 10% dialyzed FBS, 5.12 µM
[10] = HPLM + 10% dialyzed FBS, 15.4 µM
[11] = HPLM + 10% dialyzed FBS, 46.1 µM
[12] = RPMI 5 mM glucose + 10% dialyzed FBS, 0.000781 µM
[13] = RPMI 5 mM glucose + 10% dialyzed FBS, 0.00234 µM
[14] = RPMI 5 mM glucose + 10% dialyzed FBS, 0.00702 µM
[15] = RPMI 5 mM glucose + 10% dialyzed FBS, 0.0211 µM
[16] = RPMI 5 mM glucose + 10% dialyzed FBS, 0.0632 µM
[17] = RPMI 5 mM glucose + 10% dialyzed FBS, 0.19 µM
[18] = RPMI 5 mM glucose + 10% dialyzed FBS, 0.569 µM
[19] = RPMI 5 mM glucose + 10% dialyzed FBS, 1.71 µM
[20] = RPMI 5 mM glucose + 10% dialyzed FBS, 5.12 µM
[21] = RPMI 5 mM glucose + 10% dialyzed FBS, 15.4 µM
[22] = RPMI 5 mM glucose + 10% dialyzed FBS, 46.1 µM
[23] = RPMI 5 mM glucose + 10% FBS, 0.000781 µM
[24] = RPMI 5 mM glucose + 10% FBS, 0.00234 µM
[25] = RPMI 5 mM glucose + 10% FBS, 0.00702 µM
[26] = RPMI 5 mM glucose + 10% FBS, 0.0211 µM
[27] = RPMI 5 mM glucose + 10% FBS, 0.0632 µM
[28] = RPMI 5 mM glucose + 10% FBS, 0.19 µM
[29] = RPMI 5 mM glucose + 10% FBS, 0.569 µM
[30] = RPMI 5 mM glucose + 10% FBS, 1.71 µM
[31] = RPMI 5 mM glucose + 10% FBS, 5.12 µM
[32] = RPMI 5 mM glucose + 10% FBS, 15.4 µM
[33] = RPMI 5 mM glucose + 10% FBS, 46.1 µM

Compound | cell viability [1] | cell viability [2] | cell viability [3] | cell viability [4] | cell viability [5] | cell viability [6] | cell viability [7] | cell viability [8] | cell viability [9] | cell viability [10] | cell viability [11] | cell viability [12] | cell viability [13] | cell viability [14] | cell viability [15] | cell viability [16] | cell viability [17] | cell viability [18] | cell viability [19] | cell viability [20] | cell viability [21] | cell viability [22] | cell viability [23] | cell viability [24] | cell viability [25] | cell viability [26] | cell viability [27] | cell viability [28] | cell viability [29] | cell viability [30] | cell viability [31] | cell viability [32] | cell viability [33]
Cc1cccc(-c2[nH]c(C(C)(C)C)nc2-c2ccc3c(c2)OCO3)n1 | 103% | 98.7% | 114% | 105% | 104% | 120% | 113% | 121% | 109% | 10.8% | 7.86% | 92.1% | 96.8% | 100% | 93% | 120% | 99.7% | 107% | 121% | 111% | 10.4% | 4.24% | – | – | – | – | – | – | – | – | – | – | –
N=C(N)NC(=N)N1CCOCC1 | 97.7% | 97.2% | 112% | 98% | 99.1% | 105% | 109% | 103% | 86.4% | 98.9% | 112% | 104% | 114% | 107% | 104% | 106% | 100% | 111% | 93.6% | 114% | 92.3% | 110% | 94% | 94.5% | 99.7% | 96.2% | 105% | 104% | 113% | 93.4% | 71.2% | 100% | 106%
N[C@@H](Cc1ccc(O)c(O)c1)C(=O)O | 86.4% | 101% | 102% | 100% | 107% | 108% | 108% | 111% | 122% | 107% | 109% | 92.1% | 97.6% | 108% | 116% | 117% | 116% | 117% | 123% | 122% | 128% | 105% | 108% | 100% | 107% | 108% | 116% | 115% | 106% | 116% | 126% | 121% | 127%
N#Cc1ccc(NC(=O)Nc2ccccc2Br)c2nn[nH]c12 | 81.8% | 93.9% | 110% | 103% | 107% | 108% | 123% | 126% | 125% | 109% | 112% | 93.1% | 103% | 108% | 99% | 116% | 129% | 125% | 124% | 121% | 114% | 107% | 80.7% | 111% | 97.9% | 91.4% | 113% | 103% | 101% | 101% | 107% | 104% | 81.7%
Cc1ccc([S+](=O)([O-])Nc2cc(Cl)ccc2C(=O)Nc2nc(-c3ccccc3)cs2)cc1 | 116% | 111% | 110% | 117% | 121% | 115% | 24.8% | 133% | 119% | 120% | 55.3% | 121% | 110% | 99.1% | 108% | 110% | 120% | 31.8% | 119% | 126% | 118% | 32.3% | 127% | 123% | 109% | 126% | 124% | 119% | 32.1% | 124% | 121% | 120% | 58.5%
Cc1cccc2c1CC[C@H](CN1CCC(c3c(Cl)cccc3Cl)CC1)C[C@@H]2O | 71% | 98.2% | 113% | 111% | 128% | 114% | 116% | 122% | 101% | 96.6% | 79.9% | 88.5% | 109% | 118% | 126% | 120% | 95.8% | 104% | 112% | 91.9% | 70.6% | 58.3% | 112% | 138% | 120% | 127% | 130% | 111% | 142% | 133% | 108% | 72.5% | 58%
COc1cc(Cl)cn2c(-c3cccc(NC4CNC4)n3)cnc12 | 114% | 117% | 131% | 121% | 133% | 116% | 125% | 90.8% | 128% | 105% | 96.8% | – | – | – | – | – | – | – | – | – | – | – | – | – | – | – | – | – | – | – | – | – | –
COc1ccc(C2(C#N)CCC(C(=O)O)CC2)cc1OC1CCCC1 (centres undefined) | 85.5% | 97.5% | 95.9% | 101% | 99.6% | 102% | 103% | 94.7% | 105% | 106% | 114% | 81.8% | 86.8% | 104% | 94.4% | 84.3% | 95.5% | 92.2% | 100% | 90.4% | 96.9% | 96.3% | 77.3% | 85.3% | 94.1% | 90.4% | 87.4% | 95.5% | 104% | 95.8% | 88.3% | 99.4% | 99.6%
CC(C)(Sc1ccc(CCN(CCCCC2CCCCC2)C(=O)NC2CCCCC2)cc1)C(=O)O | 98.9% | 105% | 110% | 102% | 106% | 113% | 111% | 96.3% | 94.4% | 93.9% | 98.9% | 103% | 107% | 102% | 111% | 117% | 101% | 114% | 96.9% | 101% | 113% | 82.1% | 96.3% | 108% | 117% | 114% | 102% | 105% | 105% | 98.8% | 107% | 89.6% | 75.9%
NCCc1ccc(O)c(O)c1 | 119% | 137% | 121% | 133% | 130% | 132% | 131% | 110% | 109% | 86% | 8.51% | 99% | 124% | 107% | 111% | 123% | 111% | 109% | 105% | 107% | 95.2% | 11.5% | 113% | 136% | 123% | 123% | 127% | 139% | 122% | 96.5% | 128% | 107% | 18.6%
O=C1CCCC(=O)C1C(=O)c1ccc(C(F)(F)F)cc1[N+](=O)[O-] | 112% | 115% | 100% | 107% | 108% | 108% | 114% | 102% | 106% | 113% | 108% | 105% | 104% | 110% | 110% | 127% | 106% | 111% | 129% | 113% | 115% | 102% | 109% | 103% | 112% | 98.4% | 109% | 97.5% | 112% | 101% | 108% | 85.9% | 86%
CC(C)[N+]1(C)C2CCC1CC(OC(=O)C(CO)c1ccccc1)C2.O.[Br-] (centres undefined) | 96% | 97.8% | 107% | 91.3% | 98.7% | 108% | 93.7% | 113% | 91.4% | 69.4% | 64.5% | 93.2% | 98.2% | 109% | 109% | 120% | 116% | 123% | 130% | 90.2% | 40.3% | 41.9% | 111% | 103% | 106% | 96.6% | 125% | 119% | 105% | 108% | 85.9% | 40.7% | 42.3%
C[N]1C=C(C=N1)C2=CC=C3N=CC\4=C(N(C(=O)\C=C4)C5=CC6=C(CCN6C(=O)C=C)C=C5)C3=C2 | 118% | 114% | 96.1% | 120% | 93.9% | 110% | 102% | 82.1% | 27.6% | 4.07% | 4.13% | – | – | – | – | – | – | – | – | – | – | – | 104% | 105% | 90.4% | 110% | 117% | 111% | 118% | 80.5% | 26.6% | 2.7% | 3.13%
CN1CCN(CCCN2c3ccccc3Sc3ccc(Cl)cc32)CC1.O=C(O)/C=C\C(=O)O.O=C(O)/C=C\C(=O)O | 105% | 112% | 110% | 113% | 108% | 112% | 104% | 114% | 112% | 117% | 82.2% | 101% | 99.7% | 128% | 113% | 115% | 122% | 119% | 133% | 133% | 116% | 104% | 102% | 113% | 118% | 111% | 129% | 122% | 119% | 121% | 119% | 115% | 68.6%
CC(C)n1cnc2c(NCCc3ccc(O)cc3)nc(-c3csc4ccccc34)nc21 | 105% | 91% | 99.5% | 114% | 114% | 139% | 116% | 122% | 122% | 39.8% | 10.4% | 106% | 97.7% | 103% | 110% | 114% | 127% | 132% | 122% | 57.7% | 11.4% | 7.89% | 111% | 103% | 102% | 108% | 101% | 125% | 129% | 99.2% | 77.2% | 8.37% | 8.04%
CN(C(Cc1ccc(O[S+](=O)([O-])c2cccc3cnccc23)cc1)C(=O)N1CCN(c2ccccc2)CC1)[S+](=O)([O-])c1cccc2cnccc12 (centres undefined) | 102% | 110% | 112% | 105% | 110% | 108% | 114% | 95.3% | 94.6% | 74.2% | 39.1% | 110% | 120% | 100% | 119% | 114% | 120% | 114% | 110% | 90.3% | 67.1% | 34.5% | 120% | 110% | 108% | 109% | 108% | 99.7% | 108% | 96.9% | 95% | 46.2% | 22.9%
